Data as given in article PMC7151078, “A Novel NMDA Receptor Antagonist Protects against Cognitive Decline Presented by Senescent Mice” (Pharmaceutics, 2020).

Tested on: SAMR1 and SAMP8 mice
Test: Three-chamber test (TCT)
Type: in vivo, mouse
Settings: SAMP8 strain, 5 mg/kg/day, vs SP8 Ct
Method: Male SAMR1 and SAMP8 mice (n = 41) with 20-weeks-old were used to carry out cognitive and molecular analysis. The animals were randomly divided into four groups: SAMR1 control (SR1 Ct) group (n = 11), SAMP8 control (SP8 Ct) group (n = 8), SAMR1 treated with RL-208 (SR1 RL-208 (5 mg/Kg)) group (n = 10) and SAMP8 treated with RL-208 (SP8 RL-208 (5 mg/Kg)) group (n = 12). Animals had free access to food and water, under standard temperature conditions (22±2 °C) and 12h:12h light-dark cycles (300 lux/0 lux). RL-208, (3,4,8,9-tetramethyltetracyclo[4.4.0.0^3,9.0^4,8]dec-1-yl)-methylamine hydrochloride, (5 mg/kg/day) was administered through drinking water for four weeks before starting the cognitive test. RL-208 was administered up to euthanasia (Figure 1A). Water consumption was controlled each week for each cage and strain. […]
The three-chamber test (TCT) was used to assess preference for social novelty (time spent with a novel intruder in contrast with a familiar one) and sociability (time spent with rodents). […] Each test consists of 15 minutes and is recorded with a camera. […] The time spent in each chamber was evaluated. Then, an intruder (same-sex and age) was added to one of the rooms in a metal cup, and behaviour is recorded for 10 minutes. The time spent in each chamber is evaluated as well as the time interacting with the intruder (e.g., sniffing, rears, entries in each chamber).

## CC12CC3CC1(C)C1(C)CC3(CN)CC21C.Cl [RL-208, (3,4,8,9-tetramethyltetracyclo [4.4.0.0^3,9.0^4,8]dec-1-yl)methylamine hydrochloride]
  time sniffing the intruder (sociability): significantly augmented
